Results from patent US20250025451A1, “TREATMENT OF CANCER WITH KDM4 INHIBITORS” (Celgene Corporation, priority 2021, published 2025).

Experiments:
[1] = test system: SU60 patient-derived colorectal cancer xenograft; assay: in vivo efficacy, SU60 patient-derived colorectal cancer xenograft model; conditions: SU60 CRC PDX; for % TGI: Day 19; for Median Tumor Volumes Diff.: Day 19 minus Day 1
Experimental: The therapeutic in vivo efficacy of Compound 1 was evaluated in SU60 colorectal cancer, KYSE-150 esophageal cancer, COH70 triple-negative breast cancer, GXA-3036 gastric adenocarcinoma and OCI-LY19 Diffuse Large B-Cell Non-Hodgkin's Lymphoma xenograft models. In all studies, efficacy was determined based on percent tumor growth inhibition (TGI), differences in mean tumor growth, and statistical assessment of differences in net tumor volume distributions on the day of TGI analysis between control and treated animals. Tolerability was assessed based on differences in mean body weights between control and treated animals over the course of the study.
The in vivo therapeutic efficacy and tolerability of Compound 1, administered orally as the free acid form in a vehicle comprised of 50% polyethylene glycol 400 (PEG 400) and 50% PBS (pH 9), was evaluated in the SU60 CRC PDX model established in female non-obese diabetic/severe combined immunodeficiency (NOD/SCID) gamma (NSG) mice. Each mouse was inoculated subcutaneously in the abdomen with 2×10^6 SU60 tumor cells (0.1 ml) suspended in Matrigel. When the average tumor size reached ˜270 mm3, test animals were randomized into 6 groups consisting of 8 mice per group and treatments were initiated. Control mice received 50% PEG 400 and 50% PBS (pH 9) vehicle PO QD×7. Treated mice received Compound 1 in vehicle PO at 20 or 10 mg/kg QD×7, at 20 mg/kg QOD, at 23 mg/kg 3 on/4 off, or at 14 mg/kg at 5 on/2 off. TGI was determined on Day 19 as (1−Diff treated/Diff control)×100. The difference in mean net tumor volumes on the day of TGI analysis for treated versus control animals was evaluated statistically using one-way analysis of variance (ANOVA) followed by Dunnett's multiple comparisons test. Adjusted p-values are shown where a calculated probability (p)≤0.05 was considered statistically significant. Individual tumors were measured twice weekly in two dimensions using a caliper, and the tumor volumes (TV) in mm3 were calculated using the formula: TV=0.5 (l×w×h), where l, w, and h are the tumor length, width, and height in mm, respectively; Mean tumor volumes±standard error of the mean (SEM) were calculated and plotted versus days of dosing (FIG. 10 left panel). Body weights were measured twice weekly. Body weights±SEM were calculated and plotted versus days of dosing (FIG. 10 right panel).

HT-29 = assay: cell-proliferation assay (BrdU, CTG), HT-29; assay type: cell-based; conditions: HT-29, human colorectal adenocarcinoma, mean
Experimental: Compound 1 was evaluated in in vitro cell-proliferation assays (BrdU assay, MTS assay, or Cell Titer Glo (CTG) assay) in multiple cancer cell lines and patient-derived organoid models to determine half-maximal inhibitory concentrations (IC50s).
Viability and BrdU thymidine incorporation assays were performed in multiwell plates seeded with cells in growth medium. After seeding, multiwell plates were cultured for 24 hours in a humidified incubator at 37° C. to promote adherence. […] The cultures were incubated for 168 hours after which the number of viable cells or the amount of thymidine incorporation in each test well was assessed by the methods as indicated above. Readouts were performed using an EnVision® Multilabel Reader (PerkinElmer, Waltham, MA) and the results were expressed as a percent of the negative control. Percent of Control values were plotted against the corresponding Compound 1 concentration and the relative IC50 value was determined from a non-linear regression curve as the concentration where inhibition was half-maximal. For cell lines where the number of IC50 determinations exceeded one, the IC50 was expressed as the mean IC50±SD.
Half-maximal inhibitory concentration (IC50) values for Compound 1 inhibition of cell proliferation were determined for nine cancer cell lines and one normal human fibroblastcell line.

[2] = test system: FS53 patient-derived breast cancer organoid model; assay: organoid colony formation assay, FS53; assay type: cell-based, human
Experimental: The IC50 values for Compound 1 inhibition of colony formation and viability were determined for the patient-derived colon cancer organoid models: SU60, T002C, SU62, SU34, SU103, T03SC, and SU106, patient-derived pancreatic cancer organoid models PA016SF, PA0143F, T016P, and T028P, and a patient-derived breast cancer organoid model FS5S3.
Colony formation and viability assays were performed in multiwell plates seeded with organoids using an in vitro culture system composed of a Matrigel layer, media containing a defined set of growth factors, and co-culture with Wnt3 A-secreting mouse embryonic fibroblasts. Assays were initiated by adding either DMSO as a negative control, or an inhibitor panobinostatat 100×IC50 concentration as a positive control, or serially diluted Compound 1. The cultures were incubated for 168 or 144 hours after which the number of viable organoids in each test well was assessed respectively using one of two detection methods: CTG or staining with calcein-AM followed by imaging and colony counting. Colony count or viability of cells treated with compound 1 was expressed as a percent of the negative control. Aggregated Percent of Control values were plotted against the corresponding Compound 1 concentration and the absolute IC50 value was determined from a non-linear regression curve as the concentration where inhibition was 50% of the control.

[3] = 14 mg/kg (70 weekly) PO 5 on/2 off
[4] = 23 mg/kg (69 weekly) PO 3 on/4 off

## CC(C)c1ccc(N(C)c2ccc3c(c2)OCC[C@H]3CNc2cnccc2C(=O)O)cc1 [Compound 1, 3-({[(4R)-7-{methyl[4-(propan-2-yl)phenyl]amino}-3,4-dihydro-2H-1-benzopyran-4-yl]methyl}amino)pyridine-4-carboxylic acid]
[1]; female NSG mice, all regimens, over the course of the study
  tolerability (mean body weight changes): well-tolerated
[1]; female NSG mice, free acid 10 mg/kg (70 weekly) PO QD x7
  Median Tumor Volumes Day 19: 1151 mm^3
[1]; female NSG mice, free acid 14 mg/kg (70 weekly) PO 5 on/2 off
  Median Tumor Volumes Day 19: 1300 mm^3
[1]; female NSG mice, free acid 20 mg/kg (70 weekly) PO QOD
  Median Tumor Volumes Day 19: 1527 mm^3
[1]; female NSG mice, free acid 20 mg/kg (140 weekly) PO QD x7
  Median Tumor Volumes Day 19: 767 mm^3
[1]; female NSG mice, free acid 23 mg/kg (69 weekly) PO 3 on/4 off
  Median Tumor Volumes Day 19: 1121 mm^3
[1]; 10 mg/kg (70 weekly) PO QD x7
  % TGI: 48%
  Median Tumor Volumes Diff.: 901 mm^3
[1]; [3]
  % TGI: 42%
  Median Tumor Volumes Diff.: 1019 mm^3
[1]; 20 mg/kg (70 weekly) PO QOD
  % TGI: 29%
  Median Tumor Volumes Diff.: 1242 mm^3
[1]; 20 mg/kg (140 weekly) PO QD x7
  % TGI: 71%
  Median Tumor Volumes Diff.: 506 mm^3
[1]; [4]
  % TGI: 52%
  Median Tumor Volumes Diff.: 833 mm^3
HT-29; 168 hours
  IC50: 0.0235 µM
HT-29; Homo sapiens, HT-29, 168 h
  IC50: < 0.04 µM
[2]; FS53 human breast carcinoma model
  IC50: 13.6 µM
[2]; FS53 human breast carcinoma organoid, 144 hrs, Colony Counts
  IC50: 13.6 µM
